Experimental data as given in article PMC3058116 (Therapeutic drug monitoring, 2011).

Key:
[1] = Population pharmacokinetic analysis; assay type: in vivo, HIV-infected Thai patients
[2] = cited from earlier work
[3] = indinavir model, bootstrap median
[4] = indinavir model, final model estimate

CC(C)(C)NC(=O)[C@@H]1CN(Cc2cccnc2)CCN1C[C@@H](O)C[C@@H](Cc1ccccc1)C(=O)N[C@H]1c2ccccc2C[C@H]1O [IDV, Indinavir]
Inter-individual variability IIV (CL/F) [1, 3]: 0.29
Inter-individual variability IIV (Ktr) [1, 3]: 0.352
Ktr (= Ka within a transit model) [1, 3]: 2.37 h⁻¹
Residual variability, proportional σ (IDV 400 mg) [1, 3]: 0.42
Residual variability, proportional σ (IDV 600 mg) [1, 3]: 0.29
Inter-individual variability IIV (CL/F) [1, 4]: 0.30
Inter-individual variability IIV (Ktr) [1, 4]: 0.38
Ktr (= Ka within a transit model) [1, 4]: 2.32 h⁻¹
Residual variability, proportional σ (IDV 400 mg) [1, 4]: 0.42
Residual variability, proportional σ (IDV 600 mg) [1, 4]: 0.29
Inter-individual variability IIV (Vd/F) ([1]; indinavir model, final model, ω^2(V/F) = θpV/F × ω^2(CL/F)): 0.23
interindividual variability of CL/F ([1]; indinavir, final population estimate): 30%
indinavir AUC associated with an increased risk of developing nephrotoxicity ([2]; Thai patients receiving IDV/r 800/100 mg twice daily): > 60000 µg·h/mL
indinavir CL/F higher in male patients compared to female patients ([2]; after adjusting for concomitant ritonavir use): 30%
indinavir bioavailability higher in female patients than in males ([2]; analysis including only nine women): 48%

CC(C)c1nc(CN(C)C(=O)N[C@H](C(=O)N[C@@H](Cc2ccccc2)C[C@H](O)[C@H](Cc2ccccc2)NC(=O)OCc2cncs2)C(C)C)cs1 [RTV, ritonavir]
Residual variability σ (Proportional) ([1]; both, human, in vivo): 0.36
interindividual variability of CL/F ([1]; both, human, in vivo): 48%
interindividual variability of Vd/F ([1]; both, human, in vivo): 45%
θIDVDOSE-600mg (factor on ritonavir CL/F) ([1]; both, human, in vivo): 0.78
θSEX-Female (factor on ritonavir CL/F) ([1]; both, human, in vivo): 0.77
CL/F ([1]; human, in vivo): 10.1 L/h
CL/F ([1]; human, in vivo, 100 mg): 10.1 L/h
